Reference: patent publication US7015177B2, “Solid formulation” (priority 2001, dated 2006)

Experiments:
[1] = Thermal degradation of agrochemical; format: physicochemical
[2] = Solubility of agrochemical in solvent or melt; format: physicochemical; conditions: melt at about 65 to 70° C.

CC1(C)[C@H](C(=O)O[C@H](C#N)c2cccc(Oc3ccccc3)c2)[C@@H]1/C=C(\Cl)C(F)(F)F (racemic) [lambda cyhalothrin]
temperature above which it tends to degrade [1]: > 100 °C

CCCCCCCCCCCCCCCCCC(=O)O [stearic acid]
retardation of germination (seeds): no significant retardation of germination

CN1COCN(Cc2cnc(Cl)s2)/C1=N\[N+](=O)[O-] [thiamethoxam]
solubility in melt of polyethylene glycol and methyl oleate [2]: readily soluble
